Assay results taken from patent US20170044232A1, “MUTANT SMOOTHENED AND METHODS OF USING THE SAME” (GENENTECH, INC., priority 2014, published 2017).
Entries after “also recorded” stand apart in the source; their conditions may differ.

Key:
[1] = system: PPT CGNPs expressing vismodegib-resistant SMO mutants; experiment: PPT CGNP proliferation, methyl-[3H]-thymidine incorporation; assay type: cell-based, mice; settings: 1 μM JQ1 (FIG. 16B)
Source text: (§1) It has previously been noted that Hh-driven tumor cells rapidly lose their Hh pathway dependence during culturing (Sasai et al., 2006). However, CGNPs proliferate in vivo in a Hh dependent manner and maintain their Hh pathway dependence in culture for a finite period (Wechsler-Reya and Scott, 1999). CGNPs isolated from Ptch1loxp/loxp Tp53loxp/loxp Rosa26LSL-tdTomato (PPT) pups were infected with lentiviral constructs expressing a SMO variant together with an enhanced green fluorescent protein (eGFP)-Cre fusion protein (FIG. 12C). The Cre recombinase induces loss of Ptch1 and thus ensures that only transduced CGNPs can proliferate in the absence of exogenous Sonic hedgehog ligand (SHH; FIG. 11D). […] Proliferation by methyl-[3H]-thymidine incorporation was monitored, while Cre-dependent tandem dimer (td) Tomato expression enabled visualization and quantification of infected cells.
(§2) SMO mutants were generated in pRK5-SMO vectors as described (Dijkgraaf et al., 2011; Yauch et al., 2009) and were either utilized in Gli-luciferase reporter assays as described (Dijkgraaf et al., 2011) or cloned into lentiviral vectors for transduction of primary CGNP cultures. Proliferation was assayed using methyl-[3H]-thymidine incorporation (Kool et al., 2014).
(§3) Cerebella from post-natal day 5-7 Ptch1^loxp/loxp Rosa26^LSL.tdTomato Tp53^loxp/loxp mice were dissociated in 0.05% Trypsin for 10 min at 37° C. Cells were collected by centrifugation at 514×g for 10 min at 4° C., resuspended in CGNP media (Neurobasal medium (Life Technologies) containing 1×B27 (without vitamin A; Life Technologies), 0.45% glucose (Sigma Aldrich), 25 mM KCl, 0.4% bovine serum albumin (Sigma Aldrich), 2 mM glutamine, 100 U/ml Penicillin (Life Technologies), 100 μg/ml Streptomycin (Life Technologies), 200 ng/ml octylated recombinant SHH) and filtered through a 0.45 μm filter (Falcon). Cells were plated in poly-D-lysine coated 6-well plates (Corning) at 5×10E5 cells/well and infected with lentivirus at a multiplicity of infection (MOI) of 1. After 24 hr, cells were harvested by trypsinization, collected in CGNP media and replated for downstream applications.
(§4) To examine the effects of HPIs on proliferation, virally transduced CGNPs were plated in poly-D-lysine-coated 96-well plates (Corning) at 25,000 cells/well in CGNP media without SHH. […] After 24 hr, cells were pulsed with 1 μCi/ml methyl-[^3H]-thymidine (Amersham/GE Healthcare) and cultured for an additional 16-24 hr. Cells were harvested onto 96-well filter plates (Perkin Elmer) using a Filtermate Cell Harvester (Perkin Elmer), and incorporated radioactivity was quantified by liquid scintillation spectrophotometry on a TopCount NXT (PerkinElmer).

[2] = target: T1, SMO-A459V (Homo sapiens, UniProt Q99835, A459V); experiment: Gli-luciferase based Hh reporter assay; assay type: cell-based; settings: C3H10T½ cells
T1 construct: expressed in transfected cells; host or cells: C3H10T1/2 cells
Protocol: as §2
C3H10T½ cells (ATCC) were seeded into six-well plates at 1.75×10E5 cells/well in DMEM High Glucose with 4 mM glutamine, 10 mM Hepes pH 7.2 and 10% FBS. After 16 h cells were transfected with 400 ng of expression construct, 400 ng of 9×-Gli-BS and 200 ng of pRL-TK per well using GeneJuice Transfection Reagent (Novagen). For the PTCH1 inhibition experiments, cells were transfected with 200 ng SMO expression construct and an additional 200 ng of DNA containing varying ratios of PTCH1 to empty vector. Six hours later, cells from one well were trypsinized and redistributed over four wells of a 12-well plate. After 16 hours the FBS content of the culture medium was reduced to 0.5% to induce formation of primary cilia, and small molecule Hh inhibitors were added at indicated concentrations. Firefly luciferase activity was determined 24 hours later with the Dual-Glo Luciferase Assay System (Promega) and read using a Wallac EnVision plate reader (Perkin Elmer). […]

[3] = target: SMO E518A (Homo sapiens, UniProt Q99835, E518A); settings: cited from earlier work
[4] = target: SMO L515A (Homo sapiens, UniProt Q99835, L515A); settings: 1 mM vismodegib; cited from earlier work
[5] = system: SMO-A459V expressing CGNPs; experiment: PPT CGNP proliferation, methyl-[3H]-thymidine incorporation; assay type: cell-based, mice; settings: SMO-A459V (FIG. 15D)
Source text: as §1, §2, §3, §4

[6] = system: PPT CGNPs infected with SMO DBP mutants; experiment: as above; assay type: cell-based, mice; settings: all DBP mutations; >1 μM vismodegib (FIG. 12D)
Source text: as §1, §2, §3, §4

[7] = system: SMOW535L expressing CGNPs; experiment: as above; assay type: cell-based, mice; settings: SMOW535L (FIG. 15D)
Source text: as §1, §2, §3, §4

[8] = target: SMO E518K (Homo sapiens, UniProt Q99835, E518K); settings: cited from earlier work
[9] = system: advanced BCC; settings: majority of patients; complete and partial responses (Sekulic et al., 2012); cited from earlier work

T1 sequence (Q99835 28-787 A459V): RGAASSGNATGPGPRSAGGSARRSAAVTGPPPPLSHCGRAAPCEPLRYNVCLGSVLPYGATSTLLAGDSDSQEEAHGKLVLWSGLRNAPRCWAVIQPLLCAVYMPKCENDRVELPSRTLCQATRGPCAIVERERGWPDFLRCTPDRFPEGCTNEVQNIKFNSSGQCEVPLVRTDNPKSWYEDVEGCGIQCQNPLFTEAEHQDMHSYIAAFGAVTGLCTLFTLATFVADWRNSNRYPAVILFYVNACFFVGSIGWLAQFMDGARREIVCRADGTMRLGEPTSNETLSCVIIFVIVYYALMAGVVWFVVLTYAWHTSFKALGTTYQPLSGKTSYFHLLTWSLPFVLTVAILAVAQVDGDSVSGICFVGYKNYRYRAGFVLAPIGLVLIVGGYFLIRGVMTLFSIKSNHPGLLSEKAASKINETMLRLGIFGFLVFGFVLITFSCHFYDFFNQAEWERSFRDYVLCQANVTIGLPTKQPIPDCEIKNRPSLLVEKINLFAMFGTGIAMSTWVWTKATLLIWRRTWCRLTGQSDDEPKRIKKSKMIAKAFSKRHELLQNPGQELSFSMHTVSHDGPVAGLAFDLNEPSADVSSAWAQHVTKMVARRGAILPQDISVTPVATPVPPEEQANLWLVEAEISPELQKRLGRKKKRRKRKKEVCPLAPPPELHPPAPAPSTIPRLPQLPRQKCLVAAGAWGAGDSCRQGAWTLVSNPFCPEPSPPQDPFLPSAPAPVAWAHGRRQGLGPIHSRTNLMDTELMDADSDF
SMO E518A, sequence (Q99835 28-787 E518A): as the sequence (Q99835 28-787 A459V) above, with V432A, E491A counted along it
SMO L515A, sequence (Q99835 28-787 L515A): as the sequence (Q99835 28-787 A459V) above, with V432A, L488A counted along it
SMO E518K, sequence (Q99835 28-787 E518K): as the sequence (Q99835 28-787 A459V) above, with V432A, E491K counted along it

| SMILES | proliferation in the presence of JQ1 [1] | sensitivity to inhibition by vismodegib [2] | sensitivity to vismodegib [3] | sensitivity to inhibition by vismodegib [4] | proliferation at high concentrations of vismodegib [5] | proliferation at high levels of vismodegib [6] | proliferation at high concentrations of vismodegib [7] | sensitivity to vismodegib [8] | clinical outcome of BCC patients treated with vismodegib [9] |
| --- | --- | --- | --- | --- | --- | --- | --- | --- | --- |
| Cc1sc2c(c1C)C(c1ccc(Cl)cc1)=N[C@@H](CC(=O)OC(C)(C)C)c1nnc(C)n1-2 [JQ1] | reduced proliferation | – | – | – | – | – | – | – | – |
| CS(=O)(=O)c1ccc(C(=O)Nc2ccc(Cl)c(-c3ccccn3)c2)c(Cl)c1 [vismodegib] | – | decreased sensitivity; also recorded: reduced sensitivity | reduced sensitivity to | activating, sensitive | continued to proliferate | continuing to proliferate | continued to proliferate | reduced sensitivity to | clinical benefit |
